Data taken from patent US20030236302A1, “Synthetic derivatives” (priority 2002, published 2003).

Test system: Human IL-12 p70 (heterodimer)
Test: IL-12 production in IFN-primed, SAC-stimulated THP-1 cells (ELISA)
Assay type: cell-based
Conditions: Homo sapiens, THP-1 cells primed by IFNα (100 U/mL) 22 h, stimulated with 0.025% SAC, supernatants after 24 h
Method: (§1) Human monocytic THP-1 cells were primed by IFNα (100 U/mL) for 22 h and then stimulated with 0.025% SAC in the presence of different concentrations of a test compound. The test compounds were prepared in DMSO and the final DMSO concentration was adjusted to 0.25% in all cell cultures, including the compound-free control. Supernatants from the cultures were removed after 24 h, and assayed for productions of IL-12 and […]. Cell viability was assessed using the bioreduction of MTS [3-(4,5-dimethylthiazol-2-yl)-5-(3-carboxymethoxyphenyl)-2-(4-sulfophenyl)-2H-tetrazolium] (Promega, Madison, Wis.), with cell survival estimated as the ratio of the absorbance in compound-treated groups versus compound-free control. Human IL-12 p70 (heterodimer) and TNFα were assayed using ELISA kit from Endogen (Cambridge, Mass.), according to the manufacturer's instructions.

Structure (SMILES)	IC50 [µM]
O=C1C=C(O)CC(/C=C/c2cccnc2)O1 (stereo not shown) [Compound 5, 6-(2-pyridin-3-yl-vinyl)-dihydro-pyran-2,4-one]	80
COC1=CC(=O)O[C@@H](CCc2ccc(F)cc2)C1 [Compound 9, (S)-6-[2-(4-Fluoro-phenyl)-ethyl]-4-methoxy-5,6-dihydro-pyran-2-one]	86
COC1=CC(=O)OC(/C=C/c2ccc(F)c(F)c2)C1 (stereo not shown) [Compound 14, 6-[2-(3,4-difluoro-phenyl)-vinyl]-4-methoxy-5,6-dihydro-pyan-2-one]	70
COC1=CC(=O)OC(/C=C/c2ccc(F)c(F)c2F)C1 (stereo not shown) [Compound 15]	90
COC(=O)c1ccc(CCC2CC(OC)=CC(=O)O2)cc1 (stereo not shown) [Compound 16, 4-[2-(4-methoxy-6-oxo-3,6-dihydro-2H-pyran-2-yl)-ethyl]-benzoic acid methyl ester]	80
CC(C)OC1=CC(=O)O[C@@H](CCc2ccccc2)C1 [Compound 19, S-(+)-4-isopropoxy-6-phenethyl-5,6-dihydro-pyran-2-one]	70
CCOC1=CC(=O)O[C@@H](CCc2ccccc2)C1 [Compound 20, (S)-4-Ethoxy-6-phenethyl-5,6-dihydro-pyran-2-one]	80
COC1=CC(=O)O[C@@H](CCc2cccnc2)C1 [Compound 21, 4-Methoxy-6-(2-pyridin-3-yl-ethyl)-5,6-dihydro-pyran-2-one]	100

Continued, values first:

IC50 [µM]	Structure (SMILES)
70	O=C1CC(=O)O[C@@H](CCc2ccccc2F)C1 [Compound 3, (S)-6-[2-(2-fluoro-phenyl)-ethyl]-dihydro-pyran-2,4-dione]
70	COC1=CC(=O)OC(CCc2ccc[nH]2)C1 (stereo not shown) [Compound 6, 4-Methoxy-6-[2-(1H-pyrrol-2-yl)-ethyl]-5,6-dihydro-pyran-2-one]
65	COC1=CC(=O)O[C@@H](CCc2cccc(F)c2)C1 [Compound 8, (S)-6-[2-(3-Fluoro-phenyl)-ethyl]-4-methoxy-5,6-dihydro-pyran-2-one]
40	O=C1CC(=O)O[C@@H](CCc2cccc(F)c2)C1 [Compound 4, (S)-6-[2-(3-Fluoro-phenyl)-ethyl]-dihydro-pyran-2,4-dione]
38	COC1=CC(=O)O[C@@H](CCc2ccccc2F)C1 [Compound 7, (S)-6-[2-(2-Fluoro-phenyl)-ethyl]-4-methoxy-5,6-dihydro-pyran-2-one]
30	O=C1CC(=O)O[C@@H](CCc2ccccc2)C1 [Compound 1, S-(+)-6-Phenethyl-dihydro-pyran-2,4-dione]
30	O=C1CC(=O)O[C@@H](CCc2ccc(F)cc2)C1 [Compound 2, 6-[2-(4-Fluoro-phenyl)-ethyl]-dihydro-pyran-2,4-dione]
10	O=C1C=CC[C@H](CCc2ccccc2)O1 [Compound 10, (S)-6-Phenethyl-5,6-dihydro-pyran-2-one]
10	O=C1C=CC[C@H](CCc2cccc(F)c2)O1 [Compound 11, S-6-[2-(3-Fluoro-phenyl)-ethyl]-5,6-dihydro-pyran-2-one]
10	COc1cc(CC[C@H]2CC=CC(=O)O2)cc(OC)c1OC [Compound 12, S-6-[2-(3,4,5-trimethoxylphenyl)-ethyl]-5,6-dihydro-pyran-2-one]

Same assay, conditions: THP-1 cells primed by IFNα (100 U/mL) 22 h, stimulated with 0.025% SAC, supernatants after 24 h

IC50 [µM]	Structure (SMILES)
80	COC1=CC(=O)OC(C=Cc2ccc(C#N)cc2)C1 (stereo not shown) [Compound 13, 6-[2-(4-cyano-phenyl)-vinyl]-4-methoxy-5,6-dihydro-pyan-2-one]
80	COC1=CC(=O)OC(CCc2ccc(F)c(F)c2)C1 (stereo not shown) [Compound 17, 6-[2-(3,4-difluoro-phenyl)-ethyl]-4-methoxy-5,6-dihydro-pyan-2-one]
80	COC1=CC(=O)OC(CCc2ccc(F)cc2)C1 (stereo not shown) [Compound 18, 6-[2-(4-fluoro-phenyl)-ethyl]-4-methoxy-5,6-dihydro-pyan-2-one]

Test system: Human monocytic THP-1 cells
Test: Cell viability by MTS bioreduction
Assay type: cell-based
Conditions: survival vs compound-free control, read-out: CC50 (μM) Cell Toxicity
Method: as §1

Structure (SMILES)	CC50 [µM]
COC1=CC(=O)OC(C=Cc2ccc(C#N)cc2)C1 (stereo not shown) [Compound 13, 6-[2-(4-cyano-phenyl)-vinyl]-4-methoxy-5,6-dihydro-pyan-2-one]	> 100
COC1=CC(=O)OC(CCc2ccc(F)c(F)c2)C1 (stereo not shown) [Compound 17, 6-[2-(3,4-difluoro-phenyl)-ethyl]-4-methoxy-5,6-dihydro-pyan-2-one]	> 100
COC1=CC(=O)OC(CCc2ccc(F)cc2)C1 (stereo not shown) [Compound 18, 6-[2-(4-fluoro-phenyl)-ethyl]-4-methoxy-5,6-dihydro-pyan-2-one]	> 100

Test system: not listed separately
Test: Cell viability by MTS bioreduction
Assay type: cell-based, Human
Conditions: human, THP-1 monocytic cells (IFNα-primed, SAC-stimulated), THP-1 cells, survival vs compound-free control, read-out: CC50 (μM) Cell Toxicity
Method: as §1

Structure (SMILES)	CC50 at 24 h [µM]
O=C1CC(=O)O[C@@H](CCc2ccccc2)C1 [Compound 1, S-(+)-6-Phenethyl-dihydro-pyran-2,4-dione]	> 100
O=C1CC(=O)O[C@@H](CCc2ccc(F)cc2)C1 [Compound 2, 6-[2-(4-Fluoro-phenyl)-ethyl]-dihydro-pyran-2,4-dione]	> 100
O=C1CC(=O)O[C@@H](CCc2cccc(F)c2)C1 [Compound 4, (S)-6-[2-(3-Fluoro-phenyl)-ethyl]-dihydro-pyran-2,4-dione]	> 100
O=C1C=C(O)CC(/C=C/c2cccnc2)O1 (stereo not shown) [Compound 5, 6-(2-pyridin-3-yl-vinyl)-dihydro-pyran-2,4-one]	> 100
COC1=CC(=O)OC(CCc2ccc[nH]2)C1 (stereo not shown) [Compound 6, 4-Methoxy-6-[2-(1H-pyrrol-2-yl)-ethyl]-5,6-dihydro-pyran-2-one]	> 100
COC1=CC(=O)O[C@@H](CCc2ccccc2F)C1 [Compound 7, (S)-6-[2-(2-Fluoro-phenyl)-ethyl]-4-methoxy-5,6-dihydro-pyran-2-one]	> 100
COC1=CC(=O)O[C@@H](CCc2cccc(F)c2)C1 [Compound 8, (S)-6-[2-(3-Fluoro-phenyl)-ethyl]-4-methoxy-5,6-dihydro-pyran-2-one]	> 100
COC1=CC(=O)O[C@@H](CCc2ccc(F)cc2)C1 [Compound 9, (S)-6-[2-(4-Fluoro-phenyl)-ethyl]-4-methoxy-5,6-dihydro-pyran-2-one]	> 100
O=C1C=CC[C@H](CCc2ccccc2)O1 [Compound 10, (S)-6-Phenethyl-5,6-dihydro-pyran-2-one]	100
O=C1C=CC[C@H](CCc2cccc(F)c2)O1 [Compound 11, S-6-[2-(3-Fluoro-phenyl)-ethyl]-5,6-dihydro-pyran-2-one]	100
COc1cc(CC[C@H]2CC=CC(=O)O2)cc(OC)c1OC [Compound 12, S-6-[2-(3,4,5-trimethoxylphenyl)-ethyl]-5,6-dihydro-pyran-2-one]	100
COC1=CC(=O)OC(/C=C/c2ccc(F)c(F)c2)C1 (stereo not shown) [Compound 14, 6-[2-(3,4-difluoro-phenyl)-vinyl]-4-methoxy-5,6-dihydro-pyan-2-one]	> 100
COC1=CC(=O)OC(/C=C/c2ccc(F)c(F)c2F)C1 (stereo not shown) [Compound 15]	> 100
COC(=O)c1ccc(CCC2CC(OC)=CC(=O)O2)cc1 (stereo not shown) [Compound 16, 4-[2-(4-methoxy-6-oxo-3,6-dihydro-2H-pyran-2-yl)-ethyl]-benzoic acid methyl ester]	> 100
CC(C)OC1=CC(=O)O[C@@H](CCc2ccccc2)C1 [Compound 19, S-(+)-4-isopropoxy-6-phenethyl-5,6-dihydro-pyran-2-one]	> 100
CCOC1=CC(=O)O[C@@H](CCc2ccccc2)C1 [Compound 20, (S)-4-Ethoxy-6-phenethyl-5,6-dihydro-pyran-2-one]	> 100
COC1=CC(=O)O[C@@H](CCc2cccnc2)C1 [Compound 21, 4-Methoxy-6-(2-pyridin-3-yl-ethyl)-5,6-dihydro-pyran-2-one]	> 100

Test system: TNFα
Test: TNFα production in IFN-primed, SAC-stimulated THP-1 cells (ELISA)
Assay type: cell-based, Human
Conditions: Homo sapiens, THP-1 cells primed by IFNα (100 U/mL) 22 h, stimulated with 0.025% SAC, supernatants after 24 h
Method: as §1

Structure (SMILES)	IC50 [µM]
O=C1C=C(O)CC(/C=C/c2cccnc2)O1 (stereo not shown) [Compound 5, 6-(2-pyridin-3-yl-vinyl)-dihydro-pyran-2,4-one]	100
COC1=CC(=O)O[C@@H](CCc2ccc(F)cc2)C1 [Compound 9, (S)-6-[2-(4-Fluoro-phenyl)-ethyl]-4-methoxy-5,6-dihydro-pyran-2-one]	100
COC1=CC(=O)OC(/C=C/c2ccc(F)c(F)c2)C1 (stereo not shown) [Compound 14, 6-[2-(3,4-difluoro-phenyl)-vinyl]-4-methoxy-5,6-dihydro-pyan-2-one]	70
COC1=CC(=O)OC(/C=C/c2ccc(F)c(F)c2F)C1 (stereo not shown) [Compound 15]	60
COC(=O)c1ccc(CCC2CC(OC)=CC(=O)O2)cc1 (stereo not shown) [Compound 16, 4-[2-(4-methoxy-6-oxo-3,6-dihydro-2H-pyran-2-yl)-ethyl]-benzoic acid methyl ester]	80
CC(C)OC1=CC(=O)O[C@@H](CCc2ccccc2)C1 [Compound 19, S-(+)-4-isopropoxy-6-phenethyl-5,6-dihydro-pyran-2-one]	70
CCOC1=CC(=O)O[C@@H](CCc2ccccc2)C1 [Compound 20, (S)-4-Ethoxy-6-phenethyl-5,6-dihydro-pyran-2-one]	100
COC1=CC(=O)O[C@@H](CCc2cccnc2)C1 [Compound 21, 4-Methoxy-6-(2-pyridin-3-yl-ethyl)-5,6-dihydro-pyran-2-one]	80

The next lines start with the values.

IC50 [µM]	Structure (SMILES)
40	O=C1CC(=O)O[C@@H](CCc2ccccc2F)C1 [Compound 3, (S)-6-[2-(2-fluoro-phenyl)-ethyl]-dihydro-pyran-2,4-dione]
100	COC1=CC(=O)OC(CCc2ccc[nH]2)C1 (stereo not shown) [Compound 6, 4-Methoxy-6-[2-(1H-pyrrol-2-yl)-ethyl]-5,6-dihydro-pyran-2-one]
70	COC1=CC(=O)O[C@@H](CCc2cccc(F)c2)C1 [Compound 8, (S)-6-[2-(3-Fluoro-phenyl)-ethyl]-4-methoxy-5,6-dihydro-pyran-2-one]
20	O=C1CC(=O)O[C@@H](CCc2cccc(F)c2)C1 [Compound 4, (S)-6-[2-(3-Fluoro-phenyl)-ethyl]-dihydro-pyran-2,4-dione]
62	COC1=CC(=O)O[C@@H](CCc2ccccc2F)C1 [Compound 7, (S)-6-[2-(2-Fluoro-phenyl)-ethyl]-4-methoxy-5,6-dihydro-pyran-2-one]
40	O=C1CC(=O)O[C@@H](CCc2ccccc2)C1 [Compound 1, S-(+)-6-Phenethyl-dihydro-pyran-2,4-dione]
30	O=C1CC(=O)O[C@@H](CCc2ccc(F)cc2)C1 [Compound 2, 6-[2-(4-Fluoro-phenyl)-ethyl]-dihydro-pyran-2,4-dione]
13	O=C1C=CC[C@H](CCc2ccccc2)O1 [Compound 10, (S)-6-Phenethyl-5,6-dihydro-pyran-2-one]
5	O=C1C=CC[C@H](CCc2cccc(F)c2)O1 [Compound 11, S-6-[2-(3-Fluoro-phenyl)-ethyl]-5,6-dihydro-pyran-2-one]
25	COc1cc(CC[C@H]2CC=CC(=O)O2)cc(OC)c1OC [Compound 12, S-6-[2-(3,4,5-trimethoxylphenyl)-ethyl]-5,6-dihydro-pyran-2-one]

Same assay, conditions: THP-1 cells primed by IFNα (100 U/mL) 22 h, stimulated with 0.025% SAC, supernatants after 24 h

IC50 [µM]	Structure (SMILES)
80	COC1=CC(=O)OC(CCc2ccc(F)c(F)c2)C1 (stereo not shown) [Compound 17, 6-[2-(3,4-difluoro-phenyl)-ethyl]-4-methoxy-5,6-dihydro-pyan-2-one]
70	COC1=CC(=O)OC(CCc2ccc(F)cc2)C1 (stereo not shown) [Compound 18, 6-[2-(4-fluoro-phenyl)-ethyl]-4-methoxy-5,6-dihydro-pyan-2-one]
